SMILES strings stand for the structures. Read-outs that look alike come from different tables or passages of the source. A value given as a limit tells only on which side of the number the result lay.

The source of these data is US10975119B2, “Selective cysteine protease inhibitors and uses thereof” (Genesis Technologies Limited, priority 2011, dated 2021).

Holding throughout (assay type): biochemical
For one assay, the target named is T1, Caspase-1 (Homo sapiens, UniProt P29466).
T1 construct: mixing the compounds with the respective active caspases; purchased BioVision K151-100
T1 sequence (P29466 120-297 limits assumed): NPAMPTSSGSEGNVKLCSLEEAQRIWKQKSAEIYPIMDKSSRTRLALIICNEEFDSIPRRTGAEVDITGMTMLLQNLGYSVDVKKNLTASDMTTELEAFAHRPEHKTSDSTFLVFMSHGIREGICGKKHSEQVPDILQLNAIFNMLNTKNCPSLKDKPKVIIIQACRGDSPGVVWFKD
T1 sequence (P29466 317-404 limits assumed): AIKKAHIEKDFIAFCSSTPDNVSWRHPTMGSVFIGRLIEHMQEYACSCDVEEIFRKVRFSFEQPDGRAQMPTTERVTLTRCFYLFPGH
Description: Caspase-1 inhibitor screening assay (BioVision kit, YVAD-AFC). To be noted: for inhibition at 10 µM: read-out: % Inhibition at 10 uM Casp1; for inhibition at 100 µM: read-out: % Inhibition at 100 uM Casp1. The procedure, abridged: (§1)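 Each caspase cleaved its own AFC-labelled peptide substrate, and released AFC was read by fluorescence. % inhibition came from RFU against an uninhibited control.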

A further assay addresses T2, Caspase-4 (Homo sapiens, UniProt P49662).
T2 construct: mixing the compounds with the respective active caspases; purchased BioVision K154-100
T2 sequence (P49662 81-270 limits assumed): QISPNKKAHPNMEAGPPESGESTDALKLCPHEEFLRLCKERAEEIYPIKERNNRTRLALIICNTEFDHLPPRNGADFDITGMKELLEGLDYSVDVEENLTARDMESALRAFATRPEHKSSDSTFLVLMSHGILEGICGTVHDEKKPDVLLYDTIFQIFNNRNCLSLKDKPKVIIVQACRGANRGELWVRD
T2 sequence (P49662 290-377 limits assumed): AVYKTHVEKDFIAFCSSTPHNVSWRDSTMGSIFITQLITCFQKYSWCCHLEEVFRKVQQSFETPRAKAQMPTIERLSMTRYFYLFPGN
Briefly: Caspase-4 inhibitor screening assay (BioVision kit, LEVD-AFC). To be noted: for inhibition at 10 µM: read-out: % Inhibition at 10 uM Casp4; for inhibition at 100 µM: read-out: % Inhibition at 100 uM Casp4. The procedure, abridged:
as §1

Another assay deals with T3, Caspase-9 (Homo sapiens, UniProt P55211).
T3 construct: purchased BioVision K159-100
T3 sequence (P55211 1-315 limits assumed): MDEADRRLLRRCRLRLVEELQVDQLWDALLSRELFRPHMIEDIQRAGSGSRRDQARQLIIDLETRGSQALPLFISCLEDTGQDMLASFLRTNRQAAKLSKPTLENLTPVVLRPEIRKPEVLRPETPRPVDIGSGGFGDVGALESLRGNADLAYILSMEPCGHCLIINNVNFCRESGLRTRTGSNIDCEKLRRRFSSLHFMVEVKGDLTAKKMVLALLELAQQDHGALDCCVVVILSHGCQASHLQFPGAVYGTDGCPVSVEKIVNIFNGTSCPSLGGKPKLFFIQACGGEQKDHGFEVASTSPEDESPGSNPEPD
T3 sequence (P55211 331-416 limits assumed): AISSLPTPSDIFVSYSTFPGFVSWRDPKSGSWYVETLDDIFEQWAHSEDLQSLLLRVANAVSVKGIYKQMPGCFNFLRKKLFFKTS
Briefly: Caspase-9 inhibitor screening assay (BioVision kit, LEHD-AFC). To be noted: for inhibition at 10 µM: read-out: % Inhibition at 10 uM Casp9; for inhibition at 100 µM: read-out: % Inhibition at 100 uM Casp9. The procedure, abridged:
as §1

Another assay has as its target T4, Caspase-8 (Homo sapiens, UniProt Q14790).
T4 construct: mixing the compounds with the respective active caspases; purchased BioVision K158-100
Description: Caspase-8 inhibitor screening assay (BioVision kit, IETD-AFC). The settings on record: for inhibition at 10 µM: read-out: % Inhibition at 10 uM Casp8; for inhibition at 100 µM: read-out: % Inhibition at 100 uM Casp8. The procedure, abridged: as §1

Another assay has as its target T5, Caspase-7 (Homo sapiens, UniProt P55210).
T5 construct: mixing the compounds with the respective active caspases; purchased BioVision K157-100
T5 sequence (P55210 24-198 limits assumed): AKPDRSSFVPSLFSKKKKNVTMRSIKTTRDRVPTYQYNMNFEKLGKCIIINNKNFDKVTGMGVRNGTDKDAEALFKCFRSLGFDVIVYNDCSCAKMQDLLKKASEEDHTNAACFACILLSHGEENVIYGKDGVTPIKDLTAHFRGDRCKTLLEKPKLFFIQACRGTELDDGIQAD
T5 sequence (P55210 207-303 limits assumed): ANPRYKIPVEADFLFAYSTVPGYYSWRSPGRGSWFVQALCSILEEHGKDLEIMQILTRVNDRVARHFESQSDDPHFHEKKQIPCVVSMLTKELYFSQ
Description: Caspase-7 inhibitor screening assay (BioVision kit, DEVD-AFC). The settings on record: for inhibition at 10 µM: read-out: % Inhibition at 10 uM Casp7; for inhibition at 100 µM: read-out: % Inhibition at 100 uM Casp7. The procedure, abridged:
as §1

A further assay deals with T6, Caspase-2 (Homo sapiens, UniProt P42575).
T6 construct: mixing the compounds with the respective active caspases; purchased BioVision K152-100
T6 sequence (P42575 170-325 limits assumed): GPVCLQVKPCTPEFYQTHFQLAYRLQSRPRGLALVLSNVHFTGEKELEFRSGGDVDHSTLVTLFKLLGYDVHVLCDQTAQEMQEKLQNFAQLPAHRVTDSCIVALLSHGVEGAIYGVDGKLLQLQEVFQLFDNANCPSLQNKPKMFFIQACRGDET
T6 sequence (P42575 334-452 limits assumed): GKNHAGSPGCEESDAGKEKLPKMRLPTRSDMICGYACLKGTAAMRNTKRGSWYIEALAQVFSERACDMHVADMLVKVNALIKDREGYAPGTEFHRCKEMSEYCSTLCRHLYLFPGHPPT
Briefly: Caspase-2 inhibitor screening assay (BioVision kit, VDVAD-AFC). The settings on record: for inhibition at 10 µM: read-out: % Inhibition at 10 uM Casp2; for inhibition at 100 µM: read-out: % Inhibition at 100 uM Casp2; for IC50: read-out: IC50 Casp2. The procedure, abridged:
as §1

Setting [1] is: read-out: potency (IC50) against caspase-1.

T4 sequence (Q14790 217-374 limits assumed): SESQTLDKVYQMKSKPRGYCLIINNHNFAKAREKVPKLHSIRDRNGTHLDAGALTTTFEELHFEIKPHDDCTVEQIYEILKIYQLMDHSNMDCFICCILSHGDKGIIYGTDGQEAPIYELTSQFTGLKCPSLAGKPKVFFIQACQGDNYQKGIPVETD
T4 sequence (Q14790 385-479 limits assumed): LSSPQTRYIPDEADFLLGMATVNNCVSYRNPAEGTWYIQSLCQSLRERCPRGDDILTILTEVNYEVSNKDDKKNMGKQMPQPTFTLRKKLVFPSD

For the compound `CC(C)(C)[C@H](NC(=O)c1ccc2ncccc2c1)C(=O)N1CCCC1C(=O)N[C@H](/C=C/S(C)(=O)=O)CC(=O)O` (stereo in doubt) [Compound 10, Quinoline-6-carbonyl-t-Leu-Pro-Asp methyl vinyl sulfone], the inhibition at 10 µM on Caspase-1 is 90%; at Caspase-4 it was 91%; on Caspase-9, 76%; on Caspase-8, 34%; on Caspase-7, 3%; on Caspase-2, 3%. Besides, the inhibition at 100 µM came to 100% on Caspase-1; 100% on Caspase-4; 98% on Caspase-9; 94% at Caspase-8; 73% on Caspase-7; 6% at Caspase-2. Besides, the IC50 was 0.12 µM at Caspase-1 (read-out: IC50 Casp1); 1.92 µM at Caspase-4 (read-out: IC50 Casp4); 3.23 µM at Caspase-9 (read-out: IC50 Casp9); 14.7 µM at Caspase-8 (read-out: IC50 Casp8); 53.6 µM at Caspase-7 (read-out: IC50 Casp7); over 100 µM on Caspase-2.

With `CS(=O)(=O)/C=C/[C@H](CC(=O)O)NC(=O)[C@H]1CCCN1C(=O)[C@@H](NC(=O)[C@H](CC(=O)O)NC(=O)OCc1ccccc1)c1ccccc1` [Compound 30, Z-Asp-Phenylglycine-Pro-Asp-methyl vinyl sulfone], the inhibition at 10 µM on Caspase-1 came to 55%; at Caspase-4 it was 50%; on Caspase-9, 48%; on Caspase-8 it was 22%; at Caspase-7 it was 68%; on Caspase-2, 11%. For the same compound, the inhibition at 100 µM at Caspase-1 turned out to be 92%; at Caspase-4, 100%; on Caspase-9, 92%; on Caspase-8 it was 79%; at Caspase-7 it was 97%; at Caspase-2 it was 66%. Further, the IC50 is 8 µM at Caspase-1 (read-out: IC50 Casp1); 9.94 µM at Caspase-4 (read-out: IC50 Casp4); 10.8 µM at Caspase-9 (read-out: IC50 Casp9); 32.5 µM on Caspase-8 (read-out: IC50 Casp8); 6.12 µM at Caspase-7 (read-out: IC50 Casp7); 53.7 µM at Caspase-2.

As for `CCOC(=O)/C=C/[C@H](CC(=O)O)NC(=O)[C@@H](NC(=O)[C@@H](NC(=O)[C@H](CC(=O)O)NC(=O)OCc1ccccc1)c1ccccc1)C(C)C` [Compound 105, Z-Asp-Phg-Val-Asp Ethyl Vinyl Ester], the inhibition at 10 µM stood at 84% on Caspase-1; 100% on Caspase-4; 92% at Caspase-9; 77% at Caspase-8; 99% on Caspase-7; 0% at Caspase-2. In addition, the inhibition at 100 µM at Caspase-1 came to 96%; on Caspase-4 it was 98%; on Caspase-9 it was 92%; on Caspase-8, 79%; on Caspase-7 it was 99%; on Caspase-2 it was 17%. The IC50 at Caspase-1 (setting [1]) was 1.05 µM; at Caspase-4 (read-out: IC50 Casp4), 0.51 µM; on Caspase-9 (read-out: IC50 Casp9), 1 µM; on Caspase-9 (read-out: potency (IC50) against caspase-9), 0.994 µM; at Caspase-8 (read-out: IC50 Casp8) it was 2.62 µM; at Caspase-8 (read-out: potency (IC50) against caspase-8) it was 2.62 µM. For the same compound, the IC50 on Caspase-7 (read-out: IC50 Casp7) turned out to be 0.15 µM; on Caspase-7 (read-out: potency (IC50) against caspase-7), 0.145 µM.

Turning to `CC(C)(C)[C@H](NC(=O)c1ccc2ccccc2n1)C(=O)N1CCC[C@@H]1C(=O)N[C@H](/C=C/S(C)(=O)=O)CC(=O)O` [Compound 6, 2-Quinoline carbonyl-t-Leu-pro-Asp methyl vinyl sulfone], the inhibition at 10 µM was 98% on Caspase-1; 99% on Caspase-4; 1% on Caspase-9; 0% at Caspase-8; 0% on Caspase-7; 2% at Caspase-2. The inhibition at 100 µM on Caspase-1 is 100%; on Caspase-4, 100%; on Caspase-9, 51%; at Caspase-8 it was 22%; on Caspase-7, 2%; on Caspase-2, 10%. The IC50 on Caspase-1 (read-out: IC50 Casp1) was 0.04 µM; at Caspase-1 (setting [1]) it was 0.042 µM; on Caspase-4 (read-out: IC50 Casp4) it was 1.55 µM; at Caspase-4 (read-out: potency (IC50) against caspase-4), 1.55 µM; on Caspase-9 (read-out: IC50 Casp9), about 100 µM; on Caspase-8 (read-out: IC50 Casp8), over 100 µM. Also, the IC50 at Caspase-7 (read-out: IC50 Casp7) and at Caspase-2 was over 100 µM each time.

In the case of `CC(C)[C@H](NC(=O)[C@H](CCC(=O)O)NC(=O)[C@H](Cc1c[nH]c2ccccc12)NC(=O)OCc1ccccc1)C(=O)N[C@H](/C=C/S(C)(=O)=O)CC(=O)O` [Compound 40, Z-Trp-Glu-Val-Asp-methyl vinyl sulfone], the inhibition at 10 µM on Caspase-1 is 99%; on Caspase-4 it was 100%; on Caspase-9 it was 87%; at Caspase-8 it was 61%; at Caspase-7 it was 19%; on Caspase-2 it was 1%. The inhibition at 100 µM on Caspase-1 came out at 100%; on Caspase-4, 100%; on Caspase-9 it was 99%; at Caspase-8 it was 96%; at Caspase-7, 90%; on Caspase-2, 10%. The IC50 was 0.026 µM on Caspase-1 (setting [1]); 0.18 µM at Caspase-4 (read-out: IC50 Casp4); 1.74 µM at Caspase-9 (read-out: IC50 Casp9); 5.93 µM on Caspase-8 (read-out: IC50 Casp8); 23.7 µM at Caspase-7 (read-out: IC50 Casp7); over 100 µM on Caspase-2.

For `CS(=O)(=O)/C=C/[C@H](CC(=O)O)NC(=O)[C@H](CCC(=O)O)NC(=O)c1ccc2ccccc2n1` [Compound 18, 2-Quinoline carbonyl-Glu-Asp methyl vinyl sulfone], the inhibition at 10 µM at Caspase-1 was 1%; at Caspase-4, 0%; at Caspase-9, 0%; at Caspase-8, 0%; at Caspase-7 it was 0%; on Caspase-2, 0%. In addition, the inhibition at 100 µM at Caspase-1 turned out to be 1%; at Caspase-4 it was 0%; at Caspase-9, 9%; on Caspase-8 it was 0%; on Caspase-7, 7%; on Caspase-2 it was 0%. Also, the concentration for half-maximal inhibition (IC50) on Caspase-1 (read-out: IC50 Casp1), on Caspase-4 (read-out: IC50 Casp4), at Caspase-9 (read-out: IC50 Casp9), at Caspase-8 (read-out: IC50 Casp8), on Caspase-7 (read-out: IC50 Casp7) and on Caspase-2 was over 100 µM throughout.
